Each structure is given as a SMILES string.

Regarding `CN(C(=O)c1ccc2nonc2c1)C1CCCCC1O` (stereo not drawn), the melting point (commonly the temperature, or range, at which the solid turns liquid) is 148 to 149 °C.
In the case of `Cn1c(=O)cc(CCc2ccc(Cl)s2)c2cc(C(=O)c3ccc(Cl)cc3)ccc21` it was 151 °C.
`O=C1C2=C(CCCC2)C(=O)N1c1ccc(Cl)c(O)c1` had a melting point of 236 to 238 °C.
The figure for `CC(O)CCCCCCCC(O)c1ccc(OCc2ccccc2)c(OCc2ccccc2)c1` (stereo not drawn) is 66 °C; for `O=C1CCc2cccc(Oc3ccccc3Cl)c2O1` it is 123 to 125 °C.
`CC(=O)Nc1cccc2c1CN(c1ccc3c(ccn3C)c1)C2=O` returned a melting point of 239 to 243 °C.
The figure for `COc1ccc2nc3sc(C(=O)O)cn3c(=O)c2c1` is 247 to 248 °C; for `CC(=O)NC1(C)CC(C)(C)CC(C)(C)C1` it is 110 °C; for `COC(=O)CCCNC(=O)C(CSC(C)=O)Cc1ccccc1` (stereo not drawn) it is 81 to 82 °C.
In the case of `NC(=O)C(NCCc1cccs1)c1ccccc1Cl` (stereo not drawn) it was 90 to 92 °C; in that of `O=C(O)c1ccc(NCCCOc2cccc3ccccc23)cc1`, 146 to 147 °C.
In the case of `O=Cc1ccc(CN2C(=O)c3ccccc3C2=O)c2ccccc12` it was 190 to 192 °C; in that of `COc1ncc(S(C)(=O)=O)cc1CCC(=O)c1ccc(Cl)c(Cl)c1`, 145 to 146 °C.
Consider `COCc1cccc(C=O)c1NC(=O)CC1c2ccccc2Oc2ccccc21`, for which the melting point was in the range of 202 to 203 °C.
Regarding `COc1ccc([C@H]2Cc3c(cccc3[N+](=O)[O-])NC(=O)[C@H]2O)cc1` (relative stereo), the melting point was in the range of 198 to 200 °C.
The figure for `CC[C@H](C)[C@H](NC(=O)NCc1ccccc1)C(=O)N[C@H](CO)Cc1c[nH]c2ccccc12` is 132 to 133 °C; for `O=C(O)C=CC(=O)c1ccc(Oc2ccccc2Cl)cc1` it is 145 to 147 °C; for `Cn1ncc(Cl)c(NCCN2CCC(c3noc4cc(F)ccc34)CC2)c1=O` it is 108 to 109 °C.
In the case of `COCCOc1ccc2c(c1)n(C1CCCCC1)c(=O)n2S(=O)(=O)c1ccc(C(=O)O)cc1OC` it was 105 °C.
`O=C(O)Cc1ccc(CC2CCCCC2=NO)cc1` (stereo not drawn) returned a melting point of 180 to 184 °C.
The figure for `O=C(O)COc1cc2c(c(Cl)c1Cl)C(=O)C(c1ccccc1)(c1ccccc1)C2` is 251 to 252 °C; for `COc1ccc(NC(=O)c2ccc(C(C)(C)C)cc2)c([N+](=O)[O-])c1` it is 103 to 107 °C.
The figure for `Cc1cccc(C(=O)NN=Cc2cccc(Cl)c2O)c1` is 166 to 169 °C; for `O=C1c2c(F)ccc(F)c2C(=O)N1CCN1CCC(c2noc3cc(F)ccc23)CC1` it is 144 to 145 °C.
Turning to `CC(=O)n1cc(C#N)c(-c2ccccc2C(F)(F)F)c1`, the melting point lay in the range of 67 to 69 °C.
The figure for `COc1ccc(N2CCN(Cc3ccc(CNC(C)=O)cc3)CC2)cc1` is 137 to 138 °C; for `Cc1nc2c(cc1C(=O)NC(=N)N)CCCCC2` it is 230 to 232 °C.
In the case of `O=C(Nc1nnc(C(F)(F)F)o1)C(c1ccccc1)c1ccccc1` it was 149 to 150 °C; in that of `Cc1cc(O)c2cc(C)c(-c3ccc(Cl)cc3Cl)n2n1`, 234 to 237 °C; in that of `CCCCCC(=O)OCC(=O)C1CC2c3cccc4[nH]cc(c34)CC2N(C)C1` (stereo not drawn), 135 to 137 °C.
With `CC(C(=O)c1ccccn1)c1ccc(C2CCCCC2)cc1` (stereo not drawn), the melting point is 80 to 81 °C.
As for `COCCn1c(C)c(C2(c3ccc(N(C)C)cc3C)OC(=O)c3ccccc32)c2ccccc21` (stereo not drawn), the melting point was 205 to 207 °C.
The compound `O=C(O)c1ccc2cn[nH]c2c1` yielded a melting point of over 250 °C.
In the case of `CC(c1oc2ccccc2c(=O)c1-c1cccc(F)c1)n1nc(-c2cccc(C(=O)N3CCOCC3)c2)c2c(N)ncnc21` (stereo not drawn) it was 104 to 106 °C.
The figure for `COc1ccccc1N1CCN(C(=O)NCCN(C)C)CC1` is 98 to 100 °C; for `O=C(OCc1ccccc1)C1=C(c2ccccc2)C(c2ccccc2)OC1=O` (stereo not drawn) it is 111 to 114 °C.
`CC1(C)CC(O)C(C)(C)c2cc(Cn3cccn3)c(/C=C/c3ccc(C(=O)O)cc3)cc21` (stereo not drawn) gave a melting point of 242 °C.
The figure for `CCNC(SC)=C(C#N)C(=O)OC` is 86 to 88 °C; for `CCOC(=O)CC(NC(=O)c1cccc(NC(=O)c2csc(NC(=N)N)n2)c1)c1ccccc1` (racemic) it is 117 °C; for `C=C1C(=O)N[C@@H](Cc2ccccc2)C(=O)N1Cc1ccccc1` it is 124 to 127 °C.
The figure for `CC(O)(COc1ccc(S(=O)(=O)c2ccccc2)cc1)C(F)(F)F` (stereo not drawn) is 94 to 96 °C; for `COCCOc1ccc2c(C(C[N+](=O)[O-])c3cccc(NC(=O)OCc4ccccc4)c3C)c[nH]c2c1` (stereo not drawn) it is 125 °C; for `CCOc1c(-c2ccc(O)c(OC)c2)oc2cc(OC)cc(O)c2c1=O` it is 168 to 169 °C.
The figure for `COC(=O)c1ccc(N(N)C(C)=O)c(N)c1` is 175 to 178 °C.
`CC(C)(O)c1ccc(-c2ccc(N3C[C@H](Cn4ccnn4)OC3=O)cc2F)cn1` returned a melting point of 180 °C.
In the case of `CCOc1ccc(OCC(=O)O)c2c1C(=O)N(CSc1nnnn1-c1ccccc1)S2(=O)=O` it was 187 to 189 °C; in that of `CCOP(=S)(OCC)Oc1nsc(SCc2ccccc2)n1`, under 50 °C; in that of `CCCn1c(COCC)nc2c(N)nc3cc(OC4CCNCC4)ccc3c21`, 202 to 204 °C.
In turn, `CN(C(=O)CBr)c1cccc(-c2ccnc3c(C(=O)c4ccccc4)cnn23)c1` registered a melting point of 175 to 177 °C.
Consider `O=C(O)[C@H](CCc1ccccc1)NS(=O)(=O)c1ccc2c(c1)Sc1ccccc1O2`, for which the melting point was in the range of 149 to 154 °C.
The compound `CCOc1ccc(-c2nnc(C(N)=O)o2)cc1` showed a melting point of 188 °C.
In the case of `COC1=CC(=O)CC(NC(=O)Nc2ccccc2)C1` (stereo not drawn) it was 183 to 185 °C; in that of `CCc1cccc2c(NC(=O)C[C@H]3O[C@H](c4cccc(OC)c4OC)c4cc(Cl)ccc4N(CC(C)(C)CO)C3=O)c(C(=O)O)oc12`, 188 to 189 °C.
In the case of `CCOC(=O)c1ncn2c1[C@@H]1CCN1C(=O)c1c(Cl)cccc1-2` it was 184 to 185 °C.
`COc1ccccc1O[C@@H]1CN(Cc2ccccc2)C[C@H]1O` (relative stereo) registered a melting point of 115 to 117 °C.
In turn, `Cc1nc(N2CCN(C)CC2)nc(N)c1-c1cc(Cl)cc(Cl)c1Cl` showed a melting point of 156 to 159 °C.
The figure for `Cc1ccc(NC(=O)c2ccccc2[N+](=O)[O-])cc1C(F)(F)F` is 172 to 173 °C; for `COCc1c(C(C)=O)ncc2c1c1cc(OCc3ccccc3)ccc1n2S(=O)(=O)c1ccc(C)cc1` it is 173 to 175 °C; for `Cc1ncnn1-c1ccccc1C#N` it is 119 to 120 °C.
With `COc1cc2c(=O)c(C)cn3c4ccccc4c(c1)c23`, the melting point is 165 to 168 °C.
As for `CC(=O)Nc1c(F)ccc2c1CCC(C)N2` (stereo not drawn), the melting point lay in the range of 168 to 170 °C.
`COC(=O)c1ccc(F)c([N+](=O)[O-])c1` gave a melting point of 58.5 to 59.5 °C.
The figure for `CCOCCCOc1ccc(-c2ccc3c(c2)C=C(C(=O)OC)CCN3C=O)cc1` is 112 to 113 °C.

The record behind these values is a melting point compilation (Tetko et al.; mined from patent text by program, amines drawn as free bases though some values may be those of a salt).
